Measured values reported in US20220259593A1, “CONTROL OF MAMMALIAN GENE DOSAGE USING CRISPR” (The Regents of the University of California, priority 2019, published 2022).

Legend:
K562 CRISPRi cells [1] = experiment: Perturb-seq pooled growth measurement (sgRNA counts, growth phenotype γ, relative activity); format: cell-based, human; conditions: for gamma_day5 / gamma_day10: pooled growth phenotype γ of the Perturb-seq sgRNA; for gamma_day5: day 5, K562 CRISPRi cells; for gamma_day10: day 10, K562 CRISPRi cells; for relative_activity_day5: γ relative to perfectly matched sgRNA (_00) of the same gene, day 5
Method in brief: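 CRISPRi K562 cells from the Perturb-seq transduced pool; 500,000-cell samples taken days two, seven and twelve post-transduction. sgRNA amplicons from genomic DNA sequenced; growth phenotypes from normalized sgRNA abundances at days seven and twelve versus day two. Relative activity assigned from day seven (five days' growth).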

K562 CRISPRi cells [2] = experiment: as above; format: cell-based, human; conditions: γ relative to perfectly matched sgRNA (_00) of the same gene, day 10

Substance | gamma_day5 (K562 CRISPRi cells [1]) | gamma_day10 (K562 CRISPRi cells [1]) | relative_activity_day5 (K562 CRISPRi cells [1]) | relative_activity_day10 (K562 CRISPRi cells [2])
RPS14_ + _149829238.23-P1P2_01 (guide GAGACCCGGGCGCGACAATC; listed as DNA, chemistry not fully specified) | −0.7548 | −0.4807 | 0.9545 | 0.9624
RPS14_ + _149829238.23-P1P2_02 (guide GAGGCCCTGGCGCGACAATC; listed as DNA, chemistry not fully specified) | −0.5845 | −0.3829 | 0.739 | 0.7666
RPS14_ + _149829238.23-P1P2_04 (guide GAGGCCCGCGCGCGACAATC; listed as DNA, chemistry not fully specified) | −0.3025 | −0.1958 | 0.3825 | 0.3919
RPS14_ + _149829238.23-P1P2_08 (guide GAGGCCCGGGCTCGACAATC; listed as DNA, chemistry not fully specified) | 0.02738 | −0.0006109 | −0.03462 | 0.001223
RPS14_ + _149829238.23-P1P2_13 (guide GAGGCCCGGGCGCGACAGTC; listed as DNA, chemistry not fully specified) | −0.2119 | −0.1559 | 0.268 | 0.3122
RPS15_ −_1438413.23-P1P2_00 (guide GACCAAAGCGATCTCTTCTG; listed as DNA, chemistry not fully specified) | −0.6212 | −0.376 | 1 | 1
RPS15_ −_1438413.23-P1P2_01 (guide GACCAAACCGATCTCTTCTG; listed as DNA, chemistry not fully specified) | 0.006616 | 0.001422 | −0.01064 | −0.003782
RPS15_ −_1438413.23-P1P2_02 (guide GACCAAGGCGATCTCTTCTG; listed as DNA, chemistry not fully specified) | −0.4922 | −0.3145 | 0.7923 | 0.8366
RPS15_ −_1438413.23-P1P2_07 (guide GACCAAAGCGGTCTCTTCTG; listed as DNA, chemistry not fully specified) | −0.5221 | −0.3074 | 0.8404 | 0.8176
RPS15_ −_1438413.23-P1P2_12 (guide GACCAAAGCGATCTCTTGTG; listed as DNA, chemistry not fully specified) | 0.0311 | 0.01173 | 0.05005 | 0.03119
RPS18_ + _33239917.23-P1P2_00 (guide GCTGCGATGCCGCTGGATCA; listed as DNA, chemistry not fully specified) | −0.8169 | −0.503 | 1 | 1
RPS18_ + _33239917.23-P1P2_01 (guide GCTGCAATGCCGCTGGATCA; listed as DNA, chemistry not fully specified) | −0.5598 | −0.3779 | 0.6853 | 0.7514
RPS18_ + _33239917.23-P1P2_02 (guide GCTGGGATGCCGCTGGATCA; listed as DNA, chemistry not fully specified) | −0.4898 | −0.3191 | 0.5995 | 0.6345
RPS18_ + _33239917.23-P1P2_04 (guide GCTGCGATCCCGCTGGATCA; listed as DNA, chemistry not fully specified) | −0.08697 | −0.08068 | 0.1065 | 0.1604
RPS18_ + _33239917.23-P1P2_08 (guide GCTGCGATTCCGCTGGATCA; listed as DNA, chemistry not fully specified) | −0.2228 | −0.1637 | 0.2727 | 0.3255
SEC61A1_ −_127771295.23-P1_00 (guide GGCACTGACGTGTCTCTCGG; listed as DNA, chemistry not fully specified) | −0.92 | −0.5629 | 1 | 1
SEC61A1_ −_127771295.23-P1_01 (guide GGCACTGTCGTGTCTCTCGG; listed as DNA, chemistry not fully specified) | −0.4191 | −0.2918 | 0.4556 | 0.5184
SEC61A1_ −_127771295.23-P1_02 (guide GGCGCTGACGTGTCTCTCGG; listed as DNA, chemistry not fully specified) | −0.6451 | −0.4055 | 0.7012 | 0.7203
SEC61A1_ −_127771295.23-P1_03 (guide GGTACTGACGTGTCTCTCGG; listed as DNA, chemistry not fully specified) | −0.5031 | −0.3419 | 0.5469 | 0.6074
SEC61A1_ −_127771295.23-P1_04 (guide GGCACTGAAGTGTCTCTCGG; listed as DNA, chemistry not fully specified) | −0.1539 | −0.1153 | 0.1673 | 0.2049
TUBB_ + _30688126.23-P1_00 (guide GCGGCAGGAAGGTTCTGAGA; listed as DNA, chemistry not fully specified) | −0.897 | −0.6999 | 1 | 1
TUBB_ + _30688126.23-P1_01 (guide GCAGCAGGAAGGTTCTGAGA; listed as DNA, chemistry not fully specified) | −0.926 | −0.6119 | 1.032 | 0.8743
TUBB_ + _30688126.23-P1_03 (guide GCGGCAGCAAGGTTCTGAGA; listed as DNA, chemistry not fully specified) | −0.6926 | −0.4959 | 0.7721 | 0.7085
TUBB_ + _30688126.23-P1_06 (guide GCGGCAGGACGGTTCTGAGA; listed as DNA, chemistry not fully specified) | −0.7308 | −0.5544 | 0.8147 | 0.7922
TUBB_ + _30688126.23-P1_10 (guide GCGGCAGGAAGGTTCAGAGA; listed as DNA, chemistry not fully specified) | −0.1978 | −0.1451 | 0.2205 | 0.2073
